A value given as a limit tells only on which side of the number the result lay.

The species entered for this assay is Rattus norvegicus. Kind of assay: In vitro metabolism of radiolabeled compound at 10 uM was performed in rat microsomal protein containing a NADPH-regenerating system for 1 hr at 37 degree C. The format is functional.

For the compound `COc1ccc(C(Cc2c(C)cncc2C)c2ccc(C(O)(C(F)(F)F)C(F)(F)F)cc2)cc1OC1CCCC1` (stereo not given), the Covalent binding stood at 2.9%.
Take `Cc1cncc(C)c1CC(c1ccc(C(O)(C(F)(F)F)C(F)(F)F)cc1)c1ccc(OCF)c(OC(F)F)c1` (stereo not given): the Covalent binding is under 0.05%.
`COc1ccc([C@H](Cc2ccncc2)c2ccc(C(O)(C(F)(F)F)C(F)(F)F)cc2)cc1OC1CCCC1` displayed a Covalent binding (tested as the 3H-labelled form) of 3.1%.
Turning to `Cc1cncc(C)c1CC(c1ccc(C(O)(C(F)(F)F)C(F)(F)F)cc1)c1ccc(OCF)c(OC2CCC2)c1` (stereo not given), the Covalent binding was determined as 0.45%.
Still for that read-out and setting: next, `[O-][n+]1ccc(CC(c2ccc(C(O)(C(F)(F)F)C(F)(F)F)cc2)c2ccc(OC(F)F)c(OC(F)F)c2)cc1` (stereo not given): under 0.05%.

The values above are taken from ChEMBL document CHEMBL1134861, “Improving metabolic stability of phosphodiesterase-4 inhibitors containing a substituted catechol: prevention of reactive intermediate formation and covalent binding” (Bioorg Med Chem Lett, 2002).
